From patent publication US7217730B2, “Method for the use of pyranoindole derivatives to treat infection with Hepatitis C virus” (Wyeth, priority 2002, dated 2007)
Read-outs that look alike come from different tables or passages of the source.

Molecular target: T1, NS5B from the BK strain (genotype 1b) (Hepatitis C virus genotype 1b, UniProt P26663)
T1 construct: NS5B from the BK strain (genotype 1b) is expressed in E. coli as a protein in which the 21 C-terminal amino acids are replaced; made in house; host or cells: E. coli
Assay: Hepatitis C polymerase inhibition, NS5B BK strain, 33P-GTP filter assay
Assay type: biochemical
Conditions: for inhibition at 20 µM: 20 μM compound, read-out: HCV pol % inh at 20 μM; for IC50: NS5B BK strain
From the text: The ability of the compounds of the present invention to inhibit Hepatitis C Polymerase was established by the following experimental procedure: • NS5B from the BK strain (genotype 1b) is expressed in E. coli as a protein in which the 21 C-terminal amino acids are replaced with a short linker and a hexahistidine tag ([…]). The purified protein is mixed with radioactive nucleotides and allowed to replicate a heteropolymeric RNA substrate, primed by an endogenous short hairpin, resulting in an approximately 760 nt product. The radioactive product is captured on a filter and quantitated after removal of the unincorporated nucleotides.
Reagents: • 10 mM uridine 5′-triphosphate (UTP) (Promega # p116B) • 10 mM adenine 5′-triphosphate (ATP) (Promega # p113B) • 10 mM cytidine 5′-triphosphate (CTP) (Promega # p114B) • 10 mM guanine 5′-triphosphate (GTP) (Promega # p115B) • Bovine Serum Albumin (BSA) 10 mg/ml NEB (100× at 10 mg/ml) #007-BSA • RNasein (Promega #N251X) 40 U/μl • A-[33P]-GTP (NEN-easytides NEG/606H 3000 Ci/mmol, 370 MBq/ml, 10 mCi/ml) • Falcon polypropylene 96 well plates (Becton Dickinson # 351190) • Millipore Multiscreen assasy system-96 well-filtration plate #MADE NOB 50 • Optiphase Supermix (Wallac) formulated by Fisher • Millipore Multiscreen liner for use in microbeta 1450-106 casette [(Wallac) Perkin Elmer #1450-433] • 1 M(N-[2-hydroxyethyl]piperazine-N′-[2-ethanesulfonic acid]) (HEPES), pH 7.3 • Amersham Pharmacia Biotec (US16924-500 ml) • 1 M MgCl2 (SIGMA #M1028) • Dithiothreitol (DTT) (solid) (SIGMA #D9779) • RNase free water (GIBCO-BRL #10977-023) • Dimethyl sulfoxide (Aldrich #27685-5) • Basilen Blue (Sigma, B5520) • 0.5M ethylenediaminetetraacetic acid (EDTA), pH 8 (GIBCO-BRL #15575-020) • Dibasic sodium phosphate (7-hydrate) (Na2HPO4.7H2O; Baker#3824-07) • Phosphoric acid (Baker, #0262.02)
Further reagent preparation: • 0.5 M Na Phosphate buffer. Per liter, weigh 134 gr Na2HPO4.7H2O, add water to 900 ml. Adjust pH to 7.0 with phosphoric acid. Top off with water to 1 L. • Dilute nucleotides 1:1000 to 10 μM (GTP and CTP) or 1:100 to 100 μM (ATP and UTP) into RNase free water.
Procedure: • (1) Compounds 10 μl at 10 μg/ml in 15% dimethylsulfoxide (DMSO)
When starting from 100 μg/ml compound stock in […]: • Dispense 5 μl 30% DMSO per well • Dispense 5 μl compound (100 μg/ml) per well.
When starting from 50 μg/ml compound stock in 15% DMSO: • Add 10 μl compound per well. • (2) Enzyme Mix:
Add 20 μl enzyme mix into each well of the assay plate. Incubate compound and enzyme at room temperature for 15 minutes • (3) Template mix—prepare ahead
Spin down a tube of RNA (5 μg/tube stored in 75% ethanol and 0.3 M sodium acetate) in a microcentrifuge for 20 minutes at 4° C. One tube is enough for 1–1.5 plates. Remove as much ethanol from the tube as possible by inverting the tube. Be gentle, pellet RNA may not adhere to the tube. Vacuum dry the RNA. Resuspend the RNA by adding 1 ml of DEPC water, close the cap of the tube tightly. To dissolve RNA, incubate RNA solution on ice for ˜60 minutes and gently vortex. Spin briefly to ensure all RNA solution is down to the bottom of the tube before opening cap. Gently transfer RNA solution into a 5 ml or larger tube. Add another 3 ml of DEPC water (total 4 ml of volume).
Add the following volumes of reagents
Add 20 μl template mix per reaction (i.e. 20 ng of pOF per reaction or ˜3 nM) • (4) Incubate reaction at room temperature (22–25° C.) for 2 hours. • (5) Stop reaction by adding 50 μl of 170 mM EDTA. • Final concentration of EDTA is 85 mM. • (6) Prewet filters of Millipore multiscreen assay plate by adding 200 μl of 0.5 M sodium phosphate buffer, pH 7.0 into each well. Let stand at room temperature for 2–3 minutes. • (7) Place the multiscreen filter plate onto a Millipore Manifold and turn on vacuum to allow buffer to flow through. Turn off vacuum. Transfer 80 μl of the reaction product into each well of the filter plate. Let stand for 2–3 minutes. […]

[1] = Table 1A, read-out: HCV pol BK IC50

T1 sequence (P26663 2420-2989): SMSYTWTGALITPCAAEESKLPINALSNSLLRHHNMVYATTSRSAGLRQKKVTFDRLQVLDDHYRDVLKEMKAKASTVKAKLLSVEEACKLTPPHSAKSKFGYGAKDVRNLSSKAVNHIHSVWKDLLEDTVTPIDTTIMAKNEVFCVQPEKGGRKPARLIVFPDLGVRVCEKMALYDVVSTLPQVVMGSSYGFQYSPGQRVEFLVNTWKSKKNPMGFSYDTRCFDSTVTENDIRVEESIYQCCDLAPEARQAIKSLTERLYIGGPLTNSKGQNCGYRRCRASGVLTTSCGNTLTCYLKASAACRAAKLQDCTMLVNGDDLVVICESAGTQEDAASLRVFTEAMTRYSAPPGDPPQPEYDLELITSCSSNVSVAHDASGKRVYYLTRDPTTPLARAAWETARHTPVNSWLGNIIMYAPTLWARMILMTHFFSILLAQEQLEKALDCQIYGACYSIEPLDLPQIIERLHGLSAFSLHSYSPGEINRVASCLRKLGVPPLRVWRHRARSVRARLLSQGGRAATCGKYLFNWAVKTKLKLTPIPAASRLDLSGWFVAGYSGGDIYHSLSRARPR

Structure (SMILES) | inhibition at 20 µM (Table 1A) [%] | IC50 [1] [µM] | IC50 (Table 1B, read-out: BK IC50) [µM]
O=C(O)CC1(c2ccccc2F)OCCc2c1[nH]c1cccc(Br)c21 (centres unmarked) [Example 30, [5-bromo-1-(2-fluorophenyl)-1,3,4,9-tetrahydropyrano[3,4-b]indol-1-yl]acetic acid] | < 5 | > 20 | –
O=C(O)CC1(c2ccccc2)OCCc2c1[nH]c1c(Br)cccc21 (centres unmarked) [Example 86, (8-bromo-1-phenyl-1,3,4,9-tetrahydropyrano[3,4-b]indol-1-yl)acetic acid] | 20 | > 20 | –
CCCC1(CC(=O)O)OCC(C)c2c1[nH]c1c(Cl)ccc(Cl)c21 (centres unmarked) [Example 229, (5,8-dichloro-4-methyl-1-propyl-1,3,4,9-tetrahydropyrano[3,4-b]indol-1-yl)acetic acid] | – | 7 | –
CCCC1(CC(=O)O)OCCc2c1[nH]c1c(Cl)cccc21 (centres unmarked) [Example 74, (8-chloro-1-propyl-1,3,4,9-tetrahydropyrano[3,4-b]indol-1-yl)acetic acid] | 69 | 17.9 | –
CCCC1(CC(=O)O)OCCc2c1[nH]c1c(F)ccc(F)c21 (centres unmarked) [Example 124, (5,8-difluoro-1-propyl-1,3,4,9-tetrahydro-pyrano[3,4-b]indol-1-yl)acetic acid] | 61 | 6.7 | –
CCCCC1(CC(=O)O)OCCc2c1[nH]c1c(F)ccc(F)c21 (centres unmarked) [Example 126, (1-butyl-5,8-difluoro-1,3,4,9-tetrahydropyrano[3,4-b]indol-1-yl)acetic acid] | 35 | > 20 | –
CCCC1(CC(=O)O)OCCc2c1[nH]c1c(F)ccc(-c3ccc(C)cc3)c21 (centres unmarked) [Example 148, [8-fluoro-5-(4-methylphenyl)-1-propyl-1,3,4,9-tetrahydropyrano[3,4-b]indol-1-yl]acetic acid] | 47 | > 20 | –
N#Cc1cccc2[nH]c3c(c12)CCOC3(CC(=O)O)c1ccc([N+](=O)[O-])cc1 (centres unmarked) [Example 64, [5-cyano-1-(4-nitrophenyl)-1,3,4,9-tetrahydropyrano[3,4-b]indol-1-yl]acetic acid] | 18 | > 20 | –
N#Cc1c(F)cc(F)c2[nH]c3c(c12)CCOC3(CC(=O)O)c1ccoc1 (centres unmarked) [Example 197, [5-cyano-6,8-difluoro-1-(3-furyl)-1,3,4,9-tetrahydropyrano[3,4-b]indol-1-yl]acetic acid] | 55 | > 5 | –
C/C=C/CCC1(CC(=O)O)OCCc2c1[nH]c1cccc(C#N)c21 (centres unmarked) [Example 60, {5-cyano-1-[(3E)-pent-3-enyl]-1,3,4,9-tetrahydropyrano[3,4-b]indol-1-yl}acetic acid] | 15 | > 20 | –
Cc1cc(F)c(Br)c2c3c([nH]c12)C(C)(CC(=O)O)OCC3 (centres unmarked) [Example 199, (5-bromo-6-fluoro-1,8-dimethyl-1,3,4,9-tetrahydropyrano[3,4-b]indol-1-yl)acetic acid] | 52 | > 5 | –
O=C(O)CC1(c2ccccc2)OCCc2c1[nH]c1cccc(Br)c21 (centres unmarked) [Example 26, (5-bromo-1-phenyl-1,3,4,9-tetrahydropyrano[3,4-b]indol-1-yl)acetic acid] | < 5 | > 20 | –
CCCC1(CC(=O)O)OCCc2c1[nH]c1c(-c3ccc(OC)cc3)cccc21 (centres unmarked) [Example 91, [8-(4-methoxyphenyl)-1-propyl-1,3,4,9-tetrahydropyrano[3,4-b]indol-1-yl]acetic acid] | < 5 | > 20 | –
CCCC1(CC(=O)O)OCCc2c1[nH]c1c(C)ccc(C(=O)NC)c21 (centres unmarked) [Example 224, (8-methyl-5-methylcarbamoyl-1-propyl-1,3,4,9-tetrahydropyrano[3,4-b]indol-1-yl)acetic acid] | – | > 20 | –
N#Cc1cccc2[nH]c3c(c12)CCOC3(CC(=O)O)c1ccccc1 (centres unmarked) [Example 62, (5-cyano-1-phenyl-1,3,4,9-tetrahydropyrano[3,4-b]indol-1-yl)acetic acid] | 32 | > 20 | –
COCC1(CC(=O)O)OCCc2c1[nH]c1c(Cl)ccc(C(F)(F)F)c21 (centres unmarked) [Example 264, (8-chloro-1-methoxymethyl-5-trifluoromethyl-1,3,4,9-tetrahydropyrano[3,4-b]indol-1-yl)acetic acid] | – | – | > 30
Cc1cc(F)c2[nH]c3c(c2c1C#N)CCOC3(CC(=O)O)c1ccc(C(=O)O)cc1 (centres unmarked) [Example 172, 4-[1-(carboxymethyl)-5-cyano-8-fluoro-6-methyl-1,3,4,9-tetrahydropyrano[3,4-b]indol-1-yl]benzoic acid] | 74 | 1.7 | –
CCCC1(CC(=O)O)OCCc2c1[nH]c1c(F)cc(C)c(Br)c21 (centres unmarked) [Example 165, (5-bromo-8-fluoro-6-methyl-1-propyl-1,3,4,9-tetrahydropyrano[3,4-b]indol-1-yl)acetic acid] | 89 | 0.6 | –
CCC1(CC(=O)O)OCCc2c1[nH]c1c(Cl)ccc(C(F)(F)F)c21 (centres unmarked) [Example 130, [8-chloro-1-ethyl-5-(trifluoromethyl)-1,3,4,9-tetrahydropyrano[3,4-b]indol-1-yl]acetic acid] | 77 | 5.5 | –
CCCCC1(CC(=O)O)OCCc2c1[nH]c1c(Cl)cc(Cl)c(Cl)c21 (centres unmarked) [Example 158, (1-butyl-5,6,8-trichloro-1,3,4,9-tetrahydropyrano[3,4-b]indol-1-yl)acetic acid] | 91 | 0.28 | –
CCCC1(CC(=O)O)OCCc2c1[nH]c1c(F)ccc(Br)c21 (centres unmarked) [Example 152, (5-bromo-8-fluoro-1-propyl-1,3,4,9-tetrahydropyrano[3,4-b]indol-1-yl)acetic acid] | 87 | 1 | –
CCCC1(CC(=O)O)OCCc2c1[nH]c1c(C)ccc(Br)c21 (centres unmarked) [Example 153, (5-bromo-8-methyl-1-propyl-1,3,4,9-tetrahydropyrano[3,4-b]indol-1-yl)acetic acid] | 93 | 0.3 | –
CCCCC1(CC(=O)O)OCCc2c1[nH]c1c(Br)cccc21 (centres unmarked) [Example 84, (8-bromo-1-butyl-1,3,4,9-tetrahydropyrano[3,4-b]indol-1-yl)acetic acid] | 46 | 19.7 | –
COc1cc(C2(CC(=O)O)OCCc3c2[nH]c2cccc(C#N)c32)cc(OC)c1OC (centres unmarked) [Example 63, [5-cyano-1-(3,4,5-trimethoxyphenyl)-1,3,4,9-tetrahydropyrano[3,4-b]indol-1-yl]acetic acid] | 30 | > 20 | –
CCCC1(CC(=O)O)OCCc2c1[nH]c1c(F)cc(F)c(Br)c21 (centres unmarked) [Example 190, (5-bromo-6,8-difluoro-1-propyl-1,3,4,9-tetrahydropyrano[3,4-b]indol-1-yl)acetic acid] | 94 | 0.2 | –
